The structures appear in SMILES notation.

The test system of experiment [1] is Jurkat cells. The experiment is described as follows: Resazurin single toxicity assay. It is filed as cell-based. Particulars: Homo sapiens, compound alone. As to the method:
(§1) Resazurin assays were carried out to test the effectiveness of VdU, VdA and PINK alone in MV4-11 and Jurkat. The resazurin reduction assay is a colorimetric assay which allows to determine a cell's viability based on its metabolic activities.^26 When the cells are alive, the resazurin gets reduced by NADH into its resorufin form by cellular respiration, which is pink and highly fluorescent.^26 When the cells are dead or their metabolisms are impaired, the resazurin remains in its oxidized form, which is blue and has low fluorescence.^26 The cells can then be imaged using a spectrometer to determine how viable they are after each treatment.
(§2) Resazurin Single toxicity assay. MV4-11 and Jurkat cells were seeded in 96-well plates at a density of 20 000 cells/well, in triplicates. The cells were treated with each nucleoside (VdU/VdA) alone diluted in fresh media in 1:4 serial dilutions (˜0.01% DMSO) at concentrations of 1000-0 μM. The cells were treated with PINK alone diluted in fresh media in 1:2 serial dilutions (˜1% DMSO) at concentration of 100-0 μM. The cells were then incubated for 24 h and 72h. 10 μL of 870 μM resazurin was added per well, and incubated for 2-5 hours. After incubation, the fluorescence intensity at 590 nm (excitation=560 nm) was measured using a SpectraMax M5 plate reader.

Experiment [2] has as its system MV4-11 cells. The experiment is described as follows: Resazurin single toxicity assay. The class given is cell-based. As to conditions: Homo sapiens, compound alone. The procedure:
as §1, §2
Background: Alamar Blue is a resazurin reagent that responds to reducing activity.

Experiment [3] deals with MV4-11 and Jurkat. The experiment is described as follows: Resazurin single toxicity assay, summary over both cell lines. Particulars: Homo sapiens, after 24 h and 72h, read-out: IC50 summarised over both cell lines. The class given is cell-based. As to the method: as §1
Overall, VdU presented itself as a good candidate for the combination therapy with PINK due to its low toxicity in the two leukemia cell lines.
as §2

In experiment [4] the test system is MV4-11 cells. The experiment is described as follows: Resazurin Chou-Talalay optimized toxicity assay. The class given is cell-based, human. As to conditions: MV4-11, Fa 0.25-0.35 (25% to 35% of cells killed). As to the method: (§3) Lastly to determine how synergistic the combination of VdU with PINK is in the three leukemia cell lines, another resazurin reduction assay was conducted where VdU and PINK were maintained at a constant 5:1 ratio. The data generated from this resazurin assay were analyzed using the synergy model developed by Chou and Talalay 30, which is based on the median effect dose (IC50) and the slope of the drug response curve, as shown in equation II: […]
(§4) The model allows to quantitatively measure the synergy of drug combinations, by generating a combination index (CI).^30 A CI below 1 indicates a synergistic interaction which means that the effect of the drug combination is greater than the effect of both drugs alone combined.^30A CI equal to 1 indicates an additive interaction which means that the effect of the drug combination is equal to the effect of both drugs alone combined.^30 A CI above 1 indicates an antagonistic interaction which means that the effect of the drug combination is less than the effect of both alone combined. […] Where a DRI above 1 is a favorable dose reduction and a DRI below 1 is an unfavorable dose reduction.^30
Resazurin Chou-Talalay optimized toxicity assay. […] The cells were treated with resazurin, incubated and measured, as described above. The data was processed and analysed in the CompuSyn program used for running Chou-Talalay synergy analyses.^33

For experiment [5], the system named is Jurkat cells. As to the kind of experiment: Resazurin Chou-Talalay optimized toxicity assay. The class given is cell-based. As to conditions: Homo sapiens, Fa 0.50 (50% cells killed), read-out: Concentration of compound alone required at Fa. As to the method: as §3, §4
(§5) Resazurin Chou-Talalay optimized toxicity assay. MV4-11, MOLM-13 and Jurkat cells were seeded in 96-well plates at a density of 20 000 cells/well, 25 000 cells/well and 30 000 cells/well, respectively, in triplicates. The cells were first treated with VdU diluted in fresh media in 1:4 serial dilutions (˜0.01% DMSO) at concentrations of 500-0 μM alone and in combination, and incubated overnight. 24h post nucleoside addition, the cells were treated with PINK diluted in fresh media in 1:4 serial dilutions (˜1% DMSO) at concentrations of 100-0 μM alone or in combination, and incubated for 72 h. […] The cells were treated with resazurin, incubated and measured, as described above. The data was processed and analysed in the CompuSyn program used for running Chou-Talalay synergy analyses.^33

Experiment [6] concerns MOLM-13 cells. As to the kind of experiment: Resazurin Chou-Talalay optimized toxicity assay. The class given is cell-based. As to conditions: Homo sapiens; MOLM-13, Fa 0.50 (50% cells killed); read-out: Concentration of compound alone required at Fa. The procedure:
as §3, §4, §5

In experiment [7] the test system is H1299 cells. The experiment is described as follows: FACS cell cycle analysis. The class given is cell-based, human. As to conditions: H1299, 48 h and 72 h after the initial treatment. The procedure: 5-VdU and PINK combinatory impact on the cell cycle. FACS analysis of H1299 cells treated with 5-VdU/PINK whos that the cell cycle progression is severely impacted upon combinatory treatment. […] (see FIG. 26). Percentage of H1299 cells undergoing apoptosis was indicated by staining with Apotracker™ Green, induced after treatment with 1 μM 5-VdU and 10 μM PINK for different time points. H1299 cells were seeded at a density of 20% and treated with 5-VdU and PINK in the indicated concentrations. One day after the last treatment, the medium was exchanged. The cells were then stained with the Apotracker™ Green dye and Hoechst. Images were taken 72h after the first treatment. (C) H1299 cells were treated with 1 μM 5-VdU for 24 h and subsequently with 5 μM PINK for another 24 h.

The subject of experiment [8] is Jurkat cells. As to the kind of experiment: Resazurin combination toxicity assay. The class given is cell-based. Particulars: Homo sapiens. As to the method: (§6) From the single toxicity experiment, it was determined that the optimal subtoxic concentration of PINK to be used for the combination toxicity assays would be 1 μM. To test how effective the vinyl-nucleosides (VdU/VdA) in combination with PINK are at killing the cells compared to the vinyl-nucleosides alone, another resazurin reduction assay was carried out.
(§7) To determine if it is possible to treat the leukemia cells with the vinyl-nucleosides and PINK simultaneously, instead of adding them sequentially, another resazurin reduction assay using the same concentrations of each compound as in the previous combination experiment was carried out, where instead the vinyl-nucleosides and PINK were added on the same day instead of on two consecutive days.
(§8) Resazurin Combination toxicity assays. MV4-11, MOLM-13 and Jurkat cells were seeded in 96-well plates at a density of 20 000 cells/well, 25 000 cells/well and 30 000 cells/well, respectively, in triplicates. For the sequential addition, the cells were first treated with the nucleosides (VdU/VdA) diluted in fresh media in 1:4 serial dilutions (˜0.01% DMSO) at concentrations of 500-0 μM, and incubated overnight. 24h post nucleoside addition, the cells were treated with 1 μM PINK diluted in fresh media (˜1% DMSO), and incubated for 24-72h. The cells were treated with resazurin, incubated and measured, as described above. For the simultaneous addition, the cells were treated with nucleosides and PINK on the same day at the same concentrations as describes above, and incubated for 24-72h.

The test system of experiment [9] is MV4-11 cells. As to the kind of experiment: Resazurin combination toxicity assay. It is filed as cell-based. As to conditions: Homo sapiens. The procedure:
as §6, §7, §8

[10] abbreviates: 24 h incubation, read-out: IC50 value (24 h).
The mark [11] stands for this setting: 72 h incubation, read-out: IC50 value (72 h).
Where [12] appears, read: MV4-11, 24 h incubation, read-out: IC50 value (24 h).
Where [13] appears, read: MV4-11, 72 h incubation, read-out: IC50 value (72 h).
The mark [14] stands for this setting: 48 h, variable VdU/VdA alone or with 1 μM PINK added on the same day, read-out: IC50 value (48 h) for simultaneous addition.
Where [15] appears, read: variable VdU/VdA alone or with 1 μM PINK added 24 h post nucleoside addition, read-out: IC50 value (48 h) for sequential addition.

As for `Cc1nnc(-c2ccc3cc4ccc(N(C)C)cc4nc3c2)nn1` [PINK], the IC50 in [1] (setting [10]) was 7 µM; in experiment [1] (setting [11]), 4.4 µM; in experiment [2] (setting [12]), 5.7 µM; in experiment [2] (setting [13]) it was 6.2 µM; in experiment [3], approximately 5 µM; in experiment [5], 1.1 µM. The IC50 in experiment [6] was 1.2 µM. For the same molecule, the “Concentration of compound alone required at Fa” value in [4] is 3.2 µM. Also, in experiment [7], the “cell cycle profile (time course)” value is listed as “mostly unperturbed cell cycle profiles”.
For the molecule `C=Cc1cn([C@H]2C[C@H](O)[C@@H](CO)O2)c(=O)[nH]c1=O` [VdU, 5-vinyl-2′-deoxyuridine], the IC50 in [1] (setting [10]) is more than 1000 µM; in experiment [1] (setting [11]), 52 µM; in experiment [2] (setting [12]), more than 1000 µM; in experiment [2] (setting [13]) it was more than 1000 µM; in experiment [3], more than 1000 µM; in experiment [8] (setting [14]) it was 404 µM. For the same molecule, the IC50 in [8] (setting [15]) turned out to be 58 µM; in experiment [9] (setting [14]) it was 124 µM; in [9] (setting [15]) it was 60 µM; in experiment [5], 3.7 µM; in experiment [6] it was 4.2 µM. The “Concentration of compound alone required at Fa” value in experiment [4] was 59 µM. The “cell cycle profile (time course)” value in experiment [7] was “mostly unperturbed cell cycle profiles”.
